Reference: ChEMBL document CHEMBL1201862, “PubChem BioAssay data set” (2004)
Each block holds one molecule with its values, some of them ahead of it. Calls of active or inactive are those of the source.

Legend:
[1] = target: Cytochrome P450 3A4 (Homo sapiens, UniProt P08684);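 also: CYP3A4 tested as one member of a cytochrome P450 panel screen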
[2] = tested on: A-375; assay: MITF: Counter assay: A375 proliferation Measured in Cell-Based System Using Plate Reader - 2084-03_Inhibitor_Dose_DryPowder_Activity. [Related pubchem assays (depositor defined):AID488944]; assay type: functional; details: Homo sapiens
[3] = tested on: HT-1080; assay: HT1080 cell viability loss – fluorescence readout (AID 620); assay type: functional, cell-based; details: Homo sapiens
[4] = tested on: A-375; assay: proliferation inhibition in MITF-low A375 cells – cell-based, cherry-pick samples, set 2, counter-screen for MITF modulator project, dose response (AID 540335); assay type: functional; details: Homo sapiens
[5] = HEK-293T viability loss, compound-treated – cell-based, uHTS hits, cytotoxicity control for B/T-cell NF-kB inhibitor project, dose response (AID 489019); assay type: functional;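 also: IC50 reflects cytotoxicity as loss of cell viability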
[6] = off-target signal loss in HeLa-CEM21 co-culture – HeLa F-luc CTL cells, cherry-picked, counter-screen for HIV-1 Env fusion inhibitor project, dose response (AID 652040); assay type: functional, cell-based;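 also: potency for signal decrease marking cytotoxic or nonspecific inhibition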
[7] = tested on: Jurkat; assay: blockers of NF-kB activation in T cells – Jurkat, luciferase reporter, luminescence, B- and T-cell, dose response (AID 489004); assay type: functional, cell-based; details: Homo sapiens;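 also: NF-kB luciferase reporter Jurkat cells stimulated with PMA plus ionomycin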
[8] = target: T1, Luciferin 4-monooxygenase (Photinus pyralis, UniProt P08659); assay: Counter Screen for Luciferase-based Assay Positives. [Related pubchem assays: 620, 618, 411 ]
T1 sequence (P08659 whole entry, the tested form may be a part): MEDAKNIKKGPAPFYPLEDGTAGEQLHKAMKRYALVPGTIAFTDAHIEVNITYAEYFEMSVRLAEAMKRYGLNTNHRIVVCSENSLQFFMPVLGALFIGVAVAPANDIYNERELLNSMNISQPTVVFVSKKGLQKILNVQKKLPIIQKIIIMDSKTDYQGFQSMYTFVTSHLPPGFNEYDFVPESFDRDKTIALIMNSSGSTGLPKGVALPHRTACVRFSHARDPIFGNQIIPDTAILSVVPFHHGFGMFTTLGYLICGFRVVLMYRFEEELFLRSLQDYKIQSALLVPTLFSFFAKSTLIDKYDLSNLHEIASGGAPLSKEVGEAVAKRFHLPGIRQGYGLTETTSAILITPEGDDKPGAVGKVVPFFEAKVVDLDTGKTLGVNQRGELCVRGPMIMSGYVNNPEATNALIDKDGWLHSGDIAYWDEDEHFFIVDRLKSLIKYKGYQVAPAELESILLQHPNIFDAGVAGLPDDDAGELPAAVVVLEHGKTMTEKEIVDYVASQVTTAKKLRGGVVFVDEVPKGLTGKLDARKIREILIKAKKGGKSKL

[9] = blockers of HIV-1 ZM109 envelope-driven cell-cell fusion – HeLa effector, CEM target cells, luciferase, cherry-pick, dose response (AID 652058); assay type: functional, cell-based;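 also: luciferase signal from HIV-1 Env mediated cell-cell fusion of effector and target cells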
[10] = target: T2, Microphthalmia-associated transcription factor (Homo sapiens, UniProt O75030); assay: reducers of TRPM1 reporter luminescence, concentration series – cell-based, SK-MEL-5, cherry-picked, set 3, MITF inhibitor project, dose response (AID 493073); assay type: functional;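 also: SK-MEL-5 melanoma cells with luciferase driven by the MITF target TRPM1 promoter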
T2 sequence (O75030 whole entry): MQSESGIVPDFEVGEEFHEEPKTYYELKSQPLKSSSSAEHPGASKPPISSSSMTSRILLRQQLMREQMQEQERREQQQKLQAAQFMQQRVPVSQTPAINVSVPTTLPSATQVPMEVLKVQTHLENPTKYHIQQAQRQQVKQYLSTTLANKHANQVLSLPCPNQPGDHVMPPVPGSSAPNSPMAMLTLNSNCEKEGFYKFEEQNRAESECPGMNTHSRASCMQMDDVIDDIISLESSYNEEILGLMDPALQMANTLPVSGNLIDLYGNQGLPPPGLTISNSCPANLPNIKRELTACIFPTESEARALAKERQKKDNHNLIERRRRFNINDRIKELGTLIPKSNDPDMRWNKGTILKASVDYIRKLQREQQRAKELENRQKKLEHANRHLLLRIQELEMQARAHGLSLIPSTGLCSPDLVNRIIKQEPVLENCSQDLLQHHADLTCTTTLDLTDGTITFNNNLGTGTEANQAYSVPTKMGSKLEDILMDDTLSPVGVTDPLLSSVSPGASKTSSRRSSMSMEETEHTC

[11] = HIV-1 AD8 envelope cell-cell fusion blockers – cherry-pick, dose response (AID 652062); assay type: functional, cell-based;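 also: luciferase signal from cell-cell fusion driven by HIV-1 clade B AD8 Env; potency is for inhibitors of fusion seen as a drop in luminescence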
[12] = blockers of HIV-1 envelope-mediated cell-cell fusion – cherry-pick, dose response (AID 652057); assay type: functional, cell-based
[13] = target: T1, Luciferin 4-monooxygenase; assay: inhibition of purified Photinus pyralis luciferase – biochemical, luminescence, dose response (AID 1891)
[14] = Luminescence Cell-Based Dose Confirmation HTS to Identify Inhibitors of Platelet Dense Granule Release. [Related pubchem assays: 1663 (Primary HTS), 1678 (Summary of Project)]; assay type: functional
[15] = tested on: HeLa; assay: ATP-based viability loss in HeLa cells – cell-based, CellTiter-Glo luminescence, cherry-pick samples, cytotoxicity control for MITF activator project, dose response (AID 540259); assay type: functional; details: Homo sapiens

Chain of Cytochrome P450 3A4 (P08684 whole entry): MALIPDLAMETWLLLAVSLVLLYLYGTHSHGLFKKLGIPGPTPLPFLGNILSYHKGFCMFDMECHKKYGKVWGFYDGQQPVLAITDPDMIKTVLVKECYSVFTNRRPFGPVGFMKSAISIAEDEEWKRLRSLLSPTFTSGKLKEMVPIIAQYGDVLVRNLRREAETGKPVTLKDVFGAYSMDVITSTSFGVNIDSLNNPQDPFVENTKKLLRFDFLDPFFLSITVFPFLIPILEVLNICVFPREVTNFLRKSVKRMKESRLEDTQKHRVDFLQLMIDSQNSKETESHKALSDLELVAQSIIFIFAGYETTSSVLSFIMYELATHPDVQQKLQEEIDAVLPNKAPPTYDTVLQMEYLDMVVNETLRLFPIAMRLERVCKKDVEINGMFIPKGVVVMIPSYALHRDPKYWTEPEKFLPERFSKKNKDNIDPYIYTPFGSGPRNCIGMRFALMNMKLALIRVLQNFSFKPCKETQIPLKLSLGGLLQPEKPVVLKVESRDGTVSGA

- AC50 [1]: inconclusive
SMILES: O=C(c1cc(C(F)(F)F)cc(C(F)(F)F)c1)N1CCC2(CC1)CN(c1ccccc1)C2

SMILES: CC(C)(C)c1ccc(C(=O)N2CCCCCC2=O)cc1
- AC50 [2]: > 35 µM (active)
- EC50 [3]: > 50 µM (not active)
- AC50 [4]: > 35 µM (active)
- IC50 [5]: > 80 µM (inactive)
- AC50 [6]: 1.73 µM (active)
- IC50 [7]: 0.38 µM (active)
- EC50 [8]: 1.5 µM (active)
- AC50 [9]: 0.611 µM (active)
- AC50 [10]: 1.12 µM (active)
- AC50 [11]: 4.27 µM (active)
- AC50 [12]: 2.77 µM (active)

SMILES: COc1ccc(C(=O)Nc2cc(OC)nc(OC)n2)cc1
- EC50 [13]: 16.3 µM (active)
- EC50 [14]: 8.79 µM (active)
- AC50 [15]: 178 µM (active)
